Experimental data from ChEMBL document CHEMBL3044830, “Synthesis, characterization, antibacterial, antifungal, and immunomodulating activities of gatifloxacin derivatives” (Med Chem Res, 2010).

Columns and labels:
Trichophyton rubrum = test: Antifungal activity against Trichophyton rubrum assessed as concentration required to obtain a zone of inhibition of 20 mm after 7 days by disk diffusion method; assay type: functional
Proteus mirabilis [1] = test: Antibacterial activity against Proteus mirabilis assessed as concentration required to obtain a zone of inhibition of 10 mm after 18 to 24 hr by disc diffusion method; assay type: functional
Proteus mirabilis [2] = test: Antibacterial activity against Proteus mirabilis assessed as concentration required to obtain a zone of inhibition of 5 mm after 18 to 24 hr by disc diffusion method; assay type: functional
Klebsiella pneumoniae [3] = test: Antibacterial activity against Klebsiella pneumoniae assessed as zone of inhibition at 5 to 40 ug/ml after 18 to 24 hr by disk diffusion method relative to gatifloxacin; assay type: functional
Klebsiella pneumoniae [4] = test: Antibacterial activity against Klebsiella pneumoniae assessed as concentration required to obtain a zone of inhibition of 20 mm after 18 to 24 hr by disk diffusion method; assay type: functional
Escherichia coli [5] = test: Antibacterial activity against Escherichia coli assessed as concentration required to obtain a zone of inhibition of 10 mm after 18 to 24 hr by disk diffusion method; assay type: functional
Klebsiella pneumoniae [6] = test: Antibacterial activity against Klebsiella pneumoniae assessed as concentration required to obtain a zone of inhibition of 5 mm after 18 to 24 hr by disk diffusion method; assay type: functional
Shigella flexneri [7] = test: Antibacterial activity against Shigella flexneri assessed as zone of inhibition at 5 to 40 ug/ml after 18 to 24 hr by disk diffusion method relative to gatifloxacin; assay type: functional
Shigella flexneri [8] = test: Antibacterial activity against Shigella flexneri assessed as concentration required to obtain a zone of inhibition of 20 mm after 18 to 24 hr by disk diffusion method; assay type: functional
Escherichia coli [9] = test: Antibacterial activity against Escherichia coli assessed as zone of inhibition at 5 to 40 ug/ml after 18 to 24 hr by disk diffusion method relative to gatifloxacin; assay type: functional
Escherichia coli [10] = test: Antibacterial activity against Escherichia coli assessed as concentration required to obtain a zone of inhibition of 5 mm after 18 to 24 hr by disk diffusion method; assay type: functional
Bacillus subtilis [11] = test: Antibacterial activity against Bacillus subtilis assessed as concentration required to obtain a zone of inhibition of 10 mm after 18 to 24 hr by disk diffusion method; assay type: functional
Bacillus subtilis [12] = test: Antibacterial activity against Bacillus subtilis assessed as concentration required to obtain a zone of inhibition of 5 mm after 18 to 24 hr by disk diffusion method; assay type: functional
Pseudomonas aeruginosa = test: Antibacterial activity against Pseudomonas aeruginosa assessed as concentration required to obtain a zone of inhibition of 5 mm after 18 to 24 hr by disk diffusion method; assay type: functional
Citrobacter = test: Antibacterial activity against Citrobacter assessed as concentration required to obtain a zone of inhibition of 20 mm after 18 to 24 hr by disk diffusion method; assay type: functional
T-cell = test: Anti-inflammatory activity in Homo sapiens (human) T lymphocytes assessed as inhibition of PHA-induced [3H] thymidine uptake at 50 ug/ml incubated for 72 hr prior to [3H]thymidine addition measured after 18 hr by liquid scintillation method; assay type: functional
[13] = Antibacterial activity against Hofmanni bacterium assessed as zone of inhibition after 18 to 24 hr by disc diffusion method relative to gatifloxacin
Shigella sp. = test: Antibacterial activity against Shigella typhi assessed as concentration required to obtain a zone of inhibition of 10 mm after 18 to 24 hr by disc diffusion method; assay type: functional

Row | Structure (SMILES) | Activity (Trichophyton rubrum) | Activity (Proteus mirabilis [1]) | Activity (Proteus mirabilis [2]) | inhibition zone (IZ) (Klebsiella pneumoniae [3]) | Activity (Klebsiella pneumoniae [4]) | Activity (Escherichia coli [5]) | Activity (Klebsiella pneumoniae [6]) | inhibition zone (IZ) (Shigella flexneri [7]) | Activity (Shigella flexneri [8]) | inhibition zone (IZ) (Escherichia coli [9]) | Activity (Escherichia coli [10]) | Activity (Bacillus subtilis [11]) | Activity (Bacillus subtilis [12]) | Activity (Pseudomonas aeruginosa) | Activity (Citrobacter) | inhibition at 50 µg/mL (T-cell) | inhibition zone (IZ) [13] | Activity (Shigella sp.)
1 | COc1c(N2CCN(C(C)=O)C(C)C2)c(F)cc2c(=O)c(C(=O)O)cn(C3CC3)c12.O (configuration not stated) | 28 µg/mL | 10 µg/mL | 9 µg/mL | 158% | 25 µg/mL | 17 µg/mL | 16 µg/mL | 151% | 24 µg/mL | 134.8% | 10 µg/mL | 15 µg/mL | 11 µg/mL | 11 µg/mL | 24 µg/mL | -52.3% | 99% | 
2 | CCCCCCCC(=O)N1CCN(c2c(F)cc3c(=O)c(C(=O)O)cn(C4CC4)c3c2OC)CC1C.O (configuration not stated) | 16 µg/mL | 12 µg/mL | 11 µg/mL | 113% | 18 µg/mL | 10 µg/mL | 13 µg/mL | 105% | 20 µg/mL | 90.78% | 8 µg/mL | 11 µg/mL | 10 µg/mL | 8 µg/mL | 15 µg/mL | -6.9% | 88% | 
3 | COc1c(N2CCN(C(=O)c3ccccc3)C(C)C2)c(F)cc2c(=O)c(C(=O)O)cn(C3CC3)c12.O (configuration not stated) | 21 µg/mL | 11 µg/mL | 9 µg/mL | 99.8% | 21 µg/mL | 16 µg/mL | 8 µg/mL | 88.1% | 14 µg/mL | 117.3% | 8 µg/mL | 15 µg/mL | 12 µg/mL | 10 µg/mL | 12 µg/mL | -6.9% | 86% | 9 µg/mL
